Values of other authors in US9095555B2, “Cannabinoid formulations” (FULL SPECTRUM LABORATORIES LIMITED, priority 2011, dated 2015).

Assays:
[1] = prolonged contact with air, oxidation to cannabinol (CBN)

CCCCCc1cc(O)c2c(c1)OC(C)(C)[C@@H]1CCC(C)=C[C@@H]21 [Dronabinol, Δ^9-tetrahydrocannabinol]
Onset of therapeutic potency (after oral administration): 0.5 to 1 h | Amount reaching the blood stream by absorption through the digestive system (oral): 10-20 % of the administered dose | Peak therapeutic effect lasting (post administration, oral): 2 to 4 h | Oxidation stability [1]: prone to oxidation
